Reference: patent US7387895B2, “Monoclonal antibody specific for PPAR gamma, hydridoma cell line producing the same, and method for detecting regulator related to diseases, including inflammation, cancer and metabolic diseases, using the same” (Korea Research Institute of Bioscience and Biotechnology, priority 2003, dated 2008)
“Also recorded” adds a separate entry of the source.

What was measured:
[1] = biological target: T1, PPAR gamma (Homo sapiens, UniProt P37231); settings: components of oxLDL; cited from earlier work
T1 sequence (P37231 1-505): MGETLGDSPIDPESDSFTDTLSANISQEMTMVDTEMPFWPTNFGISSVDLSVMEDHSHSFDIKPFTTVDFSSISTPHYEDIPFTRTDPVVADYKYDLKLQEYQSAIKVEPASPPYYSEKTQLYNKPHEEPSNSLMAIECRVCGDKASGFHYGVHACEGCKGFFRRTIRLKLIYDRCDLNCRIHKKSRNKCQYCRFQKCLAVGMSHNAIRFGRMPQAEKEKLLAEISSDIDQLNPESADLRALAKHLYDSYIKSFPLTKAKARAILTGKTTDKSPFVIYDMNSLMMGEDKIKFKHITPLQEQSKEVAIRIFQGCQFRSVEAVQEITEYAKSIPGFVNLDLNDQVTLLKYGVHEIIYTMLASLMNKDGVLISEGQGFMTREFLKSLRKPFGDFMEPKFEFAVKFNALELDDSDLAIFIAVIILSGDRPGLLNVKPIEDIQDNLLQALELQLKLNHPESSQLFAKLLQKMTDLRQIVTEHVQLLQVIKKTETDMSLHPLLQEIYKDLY

[2] = test system: NF-κB; settings: cited from earlier work
[3] = test system: cytokine production; settings: cited from earlier work
[4] = biological target: T2, binding between SRC-1 and PPAR gamma2 proteins (Homo sapiens, UniProt P37231); assay: ELISA of binding between SRC-1 and PPAR gamma2; type: biochemical; settings: 8 μg/ml SRC-1 coated, GST-PPAR gamma2 lysate diluted 64-fold, ligand at different concentrations, FIG. 7B
T2 construct: made in house; host or cells: E. coli (pGEX4T-1/PPARgamma2, KCTC 10190BP; pET28a/SRC-1, KCTC 10191BP)
T2 sequence (Q15788 whole entry partner, one chain of several): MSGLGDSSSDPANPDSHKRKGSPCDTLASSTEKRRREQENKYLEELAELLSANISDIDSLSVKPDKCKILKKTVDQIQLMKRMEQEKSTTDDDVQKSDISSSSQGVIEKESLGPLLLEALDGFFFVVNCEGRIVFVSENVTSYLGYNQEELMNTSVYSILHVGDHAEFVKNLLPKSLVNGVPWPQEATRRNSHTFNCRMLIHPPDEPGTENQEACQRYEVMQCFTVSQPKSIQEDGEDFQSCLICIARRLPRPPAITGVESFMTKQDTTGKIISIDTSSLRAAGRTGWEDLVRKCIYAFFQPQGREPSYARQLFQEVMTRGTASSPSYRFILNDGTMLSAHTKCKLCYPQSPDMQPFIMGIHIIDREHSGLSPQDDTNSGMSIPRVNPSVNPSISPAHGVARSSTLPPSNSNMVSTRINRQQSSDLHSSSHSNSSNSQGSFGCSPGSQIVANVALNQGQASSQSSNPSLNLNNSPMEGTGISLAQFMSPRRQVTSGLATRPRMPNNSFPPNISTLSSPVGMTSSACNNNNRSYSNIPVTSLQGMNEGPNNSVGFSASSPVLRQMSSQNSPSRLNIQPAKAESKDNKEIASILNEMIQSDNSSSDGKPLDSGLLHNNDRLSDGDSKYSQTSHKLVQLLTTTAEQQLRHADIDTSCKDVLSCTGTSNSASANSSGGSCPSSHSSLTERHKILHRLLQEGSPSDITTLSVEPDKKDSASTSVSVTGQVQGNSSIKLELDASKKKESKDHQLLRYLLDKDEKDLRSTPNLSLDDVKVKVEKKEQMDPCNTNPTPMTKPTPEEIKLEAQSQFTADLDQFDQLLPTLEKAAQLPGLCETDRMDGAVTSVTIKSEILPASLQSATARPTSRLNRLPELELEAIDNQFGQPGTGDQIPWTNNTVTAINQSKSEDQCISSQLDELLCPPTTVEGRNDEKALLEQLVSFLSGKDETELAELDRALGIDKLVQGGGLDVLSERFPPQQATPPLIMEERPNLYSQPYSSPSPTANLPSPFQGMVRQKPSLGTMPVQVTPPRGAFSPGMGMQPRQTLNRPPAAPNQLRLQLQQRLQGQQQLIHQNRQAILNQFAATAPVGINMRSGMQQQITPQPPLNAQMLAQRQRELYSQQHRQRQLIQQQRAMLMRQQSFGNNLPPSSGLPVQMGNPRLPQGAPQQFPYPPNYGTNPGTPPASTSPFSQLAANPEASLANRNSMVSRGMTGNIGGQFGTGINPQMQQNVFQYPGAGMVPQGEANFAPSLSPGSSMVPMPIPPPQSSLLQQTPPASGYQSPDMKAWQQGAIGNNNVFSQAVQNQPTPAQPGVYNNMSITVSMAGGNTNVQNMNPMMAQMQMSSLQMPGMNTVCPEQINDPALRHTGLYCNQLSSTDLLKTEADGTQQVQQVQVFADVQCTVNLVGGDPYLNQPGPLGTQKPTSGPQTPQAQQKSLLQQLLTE
Description: To examine the effect of PPAR gamma2 protein concentration on the binding between SRC-1 and PPAR gamma2 proteins, the following test was conducted. […] Also, this procedure was repeated three times, and a GST-fused protein which had not been bound to SRC-1 protein was used as a control group. […] Furthermore, to examine the effect of PPAR gamma2 ligand concentration on the binding between SRC-1 and PPAR gamma2 proteins, the following test was conducted. 8 μg/ml SRC-1 was coated on a plate, and E. coli lysate was diluted 64-fold and added to the plate. Then, indomethacin, a PPAR gamma2 ligand, was added to the plate at a different concentration.
His-SRC-1 protein was diluted with 0.1 M sodium carbonate buffer (pH 9.6) to a concentration of about 800 ng/well. 100 μl of the protein dilution was loaded into each well of an ELISA plate, and coated on the plate overnight at 4° C. The coated plate was washed three times with PBS (containing 0.05% Tween®-20), and added with 3% skimmed-PBST solution and left to stand overnight at 4° C. or for 2 hours at room temperature. A soluble fraction of GST-fused PPAR gamma2 was diluted […], and 50 μl of the dilution was added to each well of the plate. Indomethacin, a PPAR gamma2 agonist, was added at 1 μM, 10 μM and 100 μM. […]

CCCCCC(O)/C=C/C=C\CCCCCCCC(=O)O (stereo not drawn) [13-HODE]
PPAR gamma agonist activity [1]: PPAR gamma agonists

CCCCC/C=C/C=C1/C(=O)C=C[C@@H]1C/C=C\CCCC(=O)O [15d-PGJ2]
NF-κB activity [2]: inhibit NF-κB activity
cytokine production in embryonic stem cells ([3]; PPAR gamma+/+, +/- or -/- embryonic stem cells): inhibited cytokine production
cytokine production of monocytes or macrophages in vitro ([3]; monocytes or macrophages): the most powerful inhibitor

COc1ccc2c(c1)c(CC(=O)O)c(C)n2C(=O)c1ccc(Cl)cc1 [indomethacin]
binding between SRC-1 and PPAR gamma2 [4]: dependent on the concentration of indomethacin; also recorded: increased

CCCCC/C=C\C=C\C(O)CCCCCCCC(=O)O (stereo not drawn) [9-HODE]
PPAR gamma agonist activity [1]: PPAR gamma agonists
